Results reported in patent publication US20090105149A1, “Compounds comprising lpa” (ENKAM PHARMACEUTICALS A/S, priority 2003, published 2009).
Marks after values point to notes of the source that are not given here.

Assays:
[1] = tested on: rats; test: Open Field test in normal rats; assay type: in vivo, rat; conditions: additional experiments
[2] = tested on: rats treated with (25-35) β-amyloid fragment; test: Social Recognition test, (25-35) β-amyloid fragment rat model; assay type: in vivo; conditions: days 7, 10, 13
Protocol: The results are from the experiment in which the suboccipital administration of 5.0 μg FGL per administration per rat was done at days 7, 10, and 13 after A-β-induced neurotoxicity. […] The number of animals in the groups varied from 4 to 22. The results were analysed using one-way ANOVA (F(2,27)=15.4, P<0.0001) and significance of results was contingent on achieving a p-value of less than 0.05 (**p<0.01), when compared to the A-β/V group (Newman-Keuls post-test). […] FGLcontrol as above.
[…] The number of animals per group varied from 4 to 5. The results were analysed using unpaired t-test and significance of results was contingent on achieving a p-value of less than 0.05 (*p<0.05), when compared to the A-β/N group. […]
The present study employed a rat model, in which neurotoxicity and cognitive impairment were induced by the (25-35) β-amyloid peptide fragment (see Maurice T., et al. (1996) (Brain Res. 706:181-93) and Delobette S., et al. (1997) Eur J Pharmacol. 319:1-4). […] Short-term memory deficit in rats was evaluated using three different behavioural tests: the Social Recognition (Kogan et al, (2000) Hippocampus 10:47-56), Open Field (Cerbone and Sadile, (1994) Neurosci Biobehav Rev. 18:497-518; Vianna et al, (2000) Learn Mem. 7:333-40) and Y-maze (Clayton & Williams, (2000) Neurobiol Learn Mem. 74:135-45) tests. […]

[3] = tested on: dissociated hippocampal neurons; test: OGD, metabolic activity (MTS) in dissociated hippocampal cell cultures; assay type: cell-based, rat
Excerpt: (§1) In the present study it was investigated the effect of the FGL peptide on synaptic plasticity, neuronal function and vulnerability following oxygen and glucose deprivation (OGD) in organotypic hippocampal neuronal slice cultures (OHSC) from 7-day-old Wistar rats according to method of Stoppini et al. (1991) Neurosci Methods. 37:173-82 and primary cultures of dissociated hippocampal neurons from 1-day-old rats according to method of Maar et al. (1997) J Neurosci Res. 47:163-72. Primary cell cultures were maintained for 11-12 days and OHSC for 12-14 days prior to adding FGLd.
The primary cell cultures and OHSC were exposed to OGD for 10 and 20 minutes. Following OGD, the cultures were again supplied with oxygen and glucose and analysed at 1, 4 or 24 hour time point after introduction of OGD exposure. FGLd (or the control peptide FGLc) was added 24 hr before, immediately, or 1 hr or 24 hr after OGD. When administered prior to OGD, FGLd was removed from the medium when introducing OGD. In some cases, the slice cultures were treated with FGLd only at 4 hr after OGD. In addition, the FGFR inhibitor, SU5402 (25 μM), was added together with FGLd in some of the set-ups.
(§2) In hippocampal neuronal cultures, FM 1-43 staining was used to evaluate pre-synaptic function (described above). Cell viability in both primary cell cultures and OHSC was measured using the […] [3-(4,5-dimethylthiazol-2-yl)-2,5-diphenyltetrazolium bromide] assay according to Malich et al, (1997) Toxicology. 124:179-92. In, addition, cell viability in OHSC was measured using propidium iodide (PI) staining according to Laake et al. (1999) Brain Res Brain Res Protoc. 4:173-84.

[4] = tested on: organotypic hippocampal neuronal slice cultures (OHSC); test: OGD, metabolic activity (MTS) in organotypic hippocampal slice cultures; assay type: cell-based, rat
Excerpt: as §1
The primary cell cultures and OHSC were exposed to OGD for 10 and 20 minutes. Following OGD, the cultures were again supplied with oxygen and glucose and analysed at 1, 4 or 24 hour time point after introduction of OGD exposure. FGLd (or the control peptide FGLc) was added 24 hr before, immediately, or 1 hr or 24 hr after OGD. […]
as §2, with “124:179-92.” left out, “4:173-84.” left out

[5] = tested on: hippocampal neurons; test: Survival of hippocampal neurons exposed to Aβ25-35; assay type: cell-based, rat; conditions: for Neuronal Survival (% of Control): β-amyloid, Hippocampal (E19)
Protocol: For the experiments dissociated hippocampal neurons were isolated from Wistar rat embryos at embryonic day 19 or newborn rats as described by Rønn et al. (1999) Nat. Biotechnol. 17:1000-5.
Briefly, hippocampus was isolated from the brain in ice cold modified Krebs Ringer solution, cleared of blood vessels, roughly homogenised by chopping and then trypsinised. The dissociated cells were washed in the presence of DNAse 1 and soybean trypsin inhibitor.
For the assay neurons were plated at a density of 40,000 cells/cm^2 on 8-well permanox slides coated with 10 μg/ml poly-L-lysine in Neurobasal medium. 15 minutes after plating, Aβ25-35 was added to a final concentration of 20 μM. The Aβ25-35 had prior to plating been dissolved in sterile deionized water to a concentration of 3 mM and incubated at 37° C. for four days according to Pigino et al. (2001) J. Neurosci. 21:834-42. This treatment induces fibrillation of the Aβ-peptide fragment, thereby increasing its neurotoxic activity. The neurons were incubated with Neurobasal medium containing the FGL peptide for 70 hours, fixed with 4% (v/v) formaldehyde, and stained with Hoechst 33258 for 25 minutes as described by Kruman et al. (1997). Images of 1000-1500 neurons were randomly recorded for each group in each experiment using computer assisted fluorescence microscopy as described for the hippocampal neurite outgrowth assay. Nuclei from dead and live neurons were counted using the software package Prima developed at the Protein Laborator, Copenhagen University, and the fraction of live neurons relative to the total number of neurons was estimated.

Question: For “FGLd: MAP-type dendrimer of FGL; dendrimeric tetramer of the FGL peptide (EVYVVAENQQGKSKA)”, which “emotional or locomotor behaviour” value [1] is on record?
Answer: The value was “did not influence emotional or locomotor behaviour”.

Question: What about the “Social Recognition test” value ([2]; Study 1, sub-occipital, tested at day 14) of the same substance?
Answer: The value was “No effect”.

Question: What about the “Social Recognition test, time exploring a juvenile rat during the second trial” value ([2]; Study 2, sub-occipital 5 μg, vs β-amyloid fragment only) of the same substance?
Answer: Its value is “significantly reduced the increased time spent”.

Question: And the “metabolic activity (MTS), treatment alone” value ([3]; no OGD)?
Answer: Its value is “led to an increase in metabolic activity”.

Question: What about the “metabolic activity (MTS) after 20 min OGD” value ([3]; treated 24 hours before or immediately after OGD) of the same substance?
Answer: Its value is “the effect of OGD on metabolic activity was diminished”.

Question: And the “metabolic activity (MTS), treatment alone” value ([4]; no OGD)?
Answer: The value was “led to an increase in metabolic activity”.

Question: What about the “metabolic activity (MTS) after OGD” value ([4]; treated 24 hours prior to OGD, 1 h and 24 h after OGD) of the same substance?
Answer: The value was “caused a normalization of the metabolic activity”.

Question: What about the “neuroprotection of hippocampal neurons, maximal level” value ([5]; at 0.3 μg/ml, 20 μM Aβ25-35, Aβ25-35-treated controls = 100%) of the same substance?
Answer: The value was 110%.

Question: And the “Neuronal Survival (% of Control)” value ([5]; 0.01 μg/mL)?
Answer: The value was 109%** % of Control.

Question: What about the “Neuronal Survival (% of Control)” value ([5]; 3 μg/mL) of the same substance?
Answer: The value was 107%** % of Control.

Question: What about the “Neuronal Survival (% of Control)” value ([5]; 9 μg/mL) of the same substance?
Answer: The value was 107%** % of Control.
